# Assay results published in PubChem BioAssay (NCI).
# Where “and” joins values, the source holds several entries; their conditions need not be identical. Identical values can stand only once.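 Protocol summary: plate cells (96-well), add compound at 5 concentrations, incubate 48 h, interpolate endpoints linearly. Abbreviation: GI50, concentration required for 50% inhibition of growth. TGI: concentration producing complete growth inhibition.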
# Assays:
# Test in all cases: NCI-60 cell line screen, 48 h
# [1] = system: NCI-H460 lung
# [2] = system: SF-295 CNS
# [3] = system: SW-620 colon
# [4] = system: NCI/ADR-RES ovarian
# [5] = system: PC-3 prostate
# [6] = system: HCC-2998 colon
# [7] = system: A498 renal
# [8] = system: KM12 colon
# [9] = system: NCI-H226 lung
# [10] = system: OVCAR-5 ovarian
SMILES,GI50 [1] [µM],TGI [1],GI50 [2] [µM],TGI [2],GI50 [3] [µM],TGI [3] [µM],GI50 [4] [µM],TGI [4],GI50 [5] [µM],TGI [5],GI50 [6] [µM],TGI [6] [µM],GI50 [7] [µM],TGI [7],GI50 [8] [µM],TGI [8],GI50 [9] [µM],TGI [9] [µM],GI50 [10] [µM],TGI [10]
CN1/C(=C\C(I)C(I)C2=[N+](C)c3ccccc3C2(C)C)C(C)(C)c2ccccc21 (configuration not stated),0.205,10.7 µM,0.192,2.48 µM,0.333,17,13.3,42.2 µM,0.177,12.3 µM,0.371,16.9,0.178,1.49 µM,0.33,11.8 µM,0.2,24.2,1.25,> 70.5 µM
C/C(=C\c1ccc(Cl)cc1)C(C)(C)C(=O)O,–,> 100 µM,–,> 100 µM,–,> 100,–,> 100 µM,–,> 100 µM,–,> 100,–,> 100 µM,–,> 100 µM,–,> 100,–,> 100 µM
CN(C)c1ccc(/C=C2\C[C@H]3[C@@H]4CC=C5C[C@@H](N6CCCC6)CC[C@]5(C)[C@H]4CC[C@]3(C)[C@H]2O)cc1,2.37,5.08 µM and 5.52 µM,8.18,2.99 µM and 23.1 µM,–,3.69,4.01,6.19 µM and 19.9 µM,2.82,50 µM and 12 µM,–,1.86,2.89,2.1 µM and 8.92 µM,5.48,10.7 µM and 50.9 µM,14,–,14.1,13 µM and 57.2 µM
COc1ccc(-c2ccc3c(NC(=O)C4CC4)n[nH]c3n2)cc1,> 25,> 25 µM,> 25,> 25 µM,> 25,> 25,> 25,> 25 µM,> 25,> 25 µM,> 25,> 25,> 25,> 25 µM,> 25,> 25 µM,> 25,> 25,> 25,> 25 µM
O=C(NCc1cccnc1)/C(=C\c1ccc(Br)cc1)S(=O)(=O)c1ccccc1,0.714,2.29 µM,1.72,3.24 µM,0.416,1.85,1.75,5.43 µM,1.06,2.61 µM,1.51,3,1.36,2.71 µM,1.53,3.47 µM,1.29,2.67,0.929,2.33 µM
S=c1nc[nH]c2c1ncn2Cc1ccco1,–,> 100 µM,–,> 100 µM,–,> 100,–,> 100 µM,–,> 100 µM,–,> 100,–,> 100 µM,–,> 100 µM,–,> 100,–,> 100 µM
CC1(C)N=C(N)N=C(N)N1c1cccc(C#N)c1,2.8,> 100 µM,2.05,24.1 µM,0.567,> 100,75.9,> 100 µM,2.66,> 100 µM,7.11,> 100,20.9,> 100 µM,7.37,> 100 µM,7.07,> 100,2.74,> 100 µM
